Assay results: paper PMC10165273, “Itch receptor MRGPRX4 interacts with the receptor activity–modifying proteins” (The Journal of Biological Chemistry, 2023)
“And” between values parts separate entries of the source, which are not always exact repeats. Identical values can stand only once. Like-named read-outs stand apart in the source and are kept apart here.

Biological target: T1, MRGPRX4 (Homo sapiens, UniProt Q96LA9)
T1 construct: expressed in transfected cells; host or cells: HEK293T
Assay: IP1 accumulation HTRF assay, MRGPRX4
Format: cell-based
Set-up: key to IP1 Basal / IP1 accumulation with YM (Figure 1c) / response to agonist, MRGPRX4 / IP1 accumulation: % IP1: unstimulated mock-transfected = 0%, fully stimulated MRGPRX4 = 100%
Conditions: for IP1 accumulation: MRGPRX4 alone, Fig S3d-f
Description: HEK293T cells were transfected with 1 pg/cell of MRGPRX4 DNA, and the amount of DNA was kept constant at 2 pg/cell with pcDNA3.1(+) empty vector, unless otherwise specified. Twenty four hours after transfection, IP1 assay was performed as previously described ([51]). When applicable, cells were treated with 1 μM YM254890 (YM) or different concentrations of U73122 for 1 h prior to addition of agonist or buffer. After incubation for 2 h, HTRF reagents and IP1 calibration standards were added and incubated for 2 h in the dark at room temperature. Time-resolved fluorescence signals were read on the BioTek Synergy NEO-TRF Hybrid multi-mode reader (BioTek Instruments). All data were carried out in three independent experiments with three technical replicate each.
For characterization of the Tet-On Nluc-HT7-MRGPRX4-GFP10-1D4 construct, HEK293T cells were transfected as previously described with some modifications. Dox dose-response of NLuc-HT7-MRGPRX4-GFP10-1D4 DNA titration was assayed by transfecting HEK293T cells with either 1 or 2 pg/cell of NLuc-HT7-MRGPRX4-GFP10-1D4 construct. Receptor expression was induced 4 h after transfection with addition of different concentrations of dox for 20 h. For the RAMP DNA titration assay, cells were cotransfected with a constant amount of 1 pg/cell of NLuc-HT7-MRGPRX4-GFP10-1D4 DNA and 1, 0.75, 0.5, or 0 pg/cell of each HA-RAMP-OLLAS with the homogenous transfection method. Four hours after transfection, receptor expression was induced with addition of 1000 ng/ml dox. Twenty hours after induction, IP1 assay was performed.
Data reduction, standard calibration, and transformation of HTRF data were performed as previously described ([51]). Normalized IP1 values were calculated relative to the unstimulated mock-transfected cells (set to 0%) and fully stimulated MRGPRX4 (alone if applicable) (set to 100%).

T1 sequence (Q96LA9 whole entry): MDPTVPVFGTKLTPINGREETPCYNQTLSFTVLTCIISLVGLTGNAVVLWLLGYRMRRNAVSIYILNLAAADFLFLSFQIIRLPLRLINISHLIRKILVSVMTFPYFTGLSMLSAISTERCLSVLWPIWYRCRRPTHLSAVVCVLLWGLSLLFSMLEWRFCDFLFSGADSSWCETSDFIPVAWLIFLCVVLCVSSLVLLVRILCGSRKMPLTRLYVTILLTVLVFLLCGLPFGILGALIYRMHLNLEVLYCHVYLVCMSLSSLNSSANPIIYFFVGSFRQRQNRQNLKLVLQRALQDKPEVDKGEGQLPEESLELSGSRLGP

C[C@H](CCC(=O)O)[C@H]1CC[C@H]2[C@@H]3CC[C@@H]4C[C@H](O)CC[C@]4(C)[C@H]3C[C@H](O)[C@]12C [DCA, deoxycholic acid]
efficacy (Figure 4a bottom, MRGPRX4 alone (reference = 100), individual replicates): 100
Emax (Figure 4a bottom, MRGPRX4 alone (reference = 100), individual replicates, read-out: efficacy): 100%
response to agonist, MRGPRX4 (Figure 4c-f, agonist 100µM, MRGPRX4 alone (reference = 100)): 100
normalized IP1 accumulation (HA-MRGX4-1D4, log [agonist] (M) -4): 58.1095 and 47.3107
normalized IP1 accumulation (HA-MRGX4-1D4, log [agonist] (M) -4.69897): 33.2327 and 34.6328
normalized IP1 accumulation (HA-MRGX4-1D4, log [agonist] (M) -5.39794): 18.9895
normalized IP1 accumulation (HA-MRGX4-1D4, log [agonist] (M) -6.09691): 13.2757 and 15.4467
normalized IP1 accumulation (HA-MRGX4-1D4, log [agonist] (M) -6.79588): 13.3916 and 13.9578
normalized IP1 accumulation (HA-MRGX4-1D4, log [agonist] (M) -7.49485): 12.579 and 14.4894
Emax (HEK-293T, MRGPRX4 (Fig. 1A), HEK293T, normalized to 100 μM nateglinide, read-out: IP1 Emax): 77.9%
Emax (HEK-293T, MRGPRX4 (Fig. 1A), HEK293T, normalized to 100 μM nateglinide, read-out: IP1 span): 62.9%
Emax (MRGPRX4 0.125 pg DNA/cell, individual experiments, read-out: efficacy (Figure 1b bottom)): 47.9%
Emax (MRGPRX4 0.25 pg DNA/cell, individual experiments, read-out: efficacy (Figure 1b bottom)): 45%
Emax (MRGPRX4 0.5 pg DNA/cell, individual experiments, read-out: efficacy (Figure 1b bottom)): 58.3%
Emax (MRGPRX4 1 pg DNA/cell, individual experiments, read-out: efficacy (Figure 1b bottom)): 70.6%
Emax (MRGPRX4 2 pg DNA/cell, individual experiments, read-out: efficacy (Figure 1b bottom)): 80.7%
IP1 Basal (MRGPRX4 (Fig. 1A), HEK293T, normalized to 100 μM nateglinide): 15.03
IP1 Basal (MRGPRX4 DNA 0.25 pg/cell (Fig. S1)): 4.249
Emax (MRGPRX4 DNA 0.25 pg/cell (Fig. S1), read-out: IP1 Emax): 54.2%
Emax (MRGPRX4 DNA 0.25 pg/cell (Fig. S1), read-out: IP1 span): 50%
IP1 Basal (MRGPRX4 DNA 0.5 pg/cell (Fig. S1)): 6.783
Emax (MRGPRX4 DNA 0.5 pg/cell (Fig. S1), read-out: IP1 Emax): 68%
Emax (MRGPRX4 DNA 0.5 pg/cell (Fig. S1), read-out: IP1 span): 61.2%
IP1 Basal (MRGPRX4 DNA 1 pg/cell (Fig. S1)): 9.471
Emax (MRGPRX4 DNA 1 pg/cell (Fig. S1), read-out: IP1 Emax): 73.8%
Emax (MRGPRX4 DNA 1 pg/cell (Fig. S1), read-out: IP1 span): 64.3%
IP1 Basal (MRGPRX4 DNA 2 pg/cell (Fig. S1)): 12.99
Emax (MRGPRX4 DNA 2 pg/cell (Fig. S1), read-out: IP1 Emax): 87.2%
Emax (MRGPRX4 DNA 2 pg/cell (Fig. S1), read-out: IP1 span): 74.2%
Emax (MRGPRX4 DNA […] (Fig. S1), read-out: IP1 Emax): 50.3%
Emax (MRGPRX4 DNA […] (Fig. S1), read-out: IP1 span): 47%
IP1 accumulation (log [DCA] (M) -4.69897): 57.1868 and 75.4734
IP1 accumulation (log [DCA] (M) -5.39794): 30.3386
IP1 accumulation (log [DCA] (M) -6.09691): 23.4514 and 33.1858
IP1 accumulation (log [DCA] (M) -6.79588): 21.3567 and 30.9234
IP1 accumulation (log [DCA] (M) -7.49485): 19.4869 and 27.2792
normalized IP1 accumulation (SP-FLAG-Nluc-HT7-MRGX4_Tet-GFP10-1D4, log [agonist] (M) -4.09691): 41.457 and 40.0931
normalized IP1 accumulation (SP-FLAG-Nluc-HT7-MRGX4_Tet-GFP10-1D4, log [agonist] (M) -4.79588): 23.5519 and 24.4487
normalized IP1 accumulation (SP-FLAG-Nluc-HT7-MRGX4_Tet-GFP10-1D4, log [agonist] (M) -5.49485): 12.8144 and 13.3904
normalized IP1 accumulation (SP-FLAG-Nluc-HT7-MRGX4_Tet-GFP10-1D4, log [agonist] (M) -6.19382): 11.7164 and 10.0407
normalized IP1 accumulation (SP-FLAG-Nluc-HT7-MRGX4_Tet-GFP10-1D4, log [agonist] (M) -6.89279): 9.829 and 11.4364
normalized IP1 accumulation (SP-FLAG-Nluc-HT7-MRGX4_Tet-GFP10-1D4, log [agonist] (M) -7.59176): 10.7139 and 10.5391
normalized IP1 accumulation (SP-FLAG-Nluc-HT7-MRGX4_Tet-GFP10-1D4 no dox, log [agonist] (M) -4.09691): 9.638 and 9.7
normalized IP1 accumulation (SP-FLAG-Nluc-HT7-MRGX4_Tet-GFP10-1D4 no dox, log [agonist] (M) -4.79588): 7.503 and 8.174
normalized IP1 accumulation (SP-FLAG-Nluc-HT7-MRGX4_Tet-GFP10-1D4 no dox, log [agonist] (M) -5.49485): 9.457 and 8.365
normalized IP1 accumulation (SP-FLAG-Nluc-HT7-MRGX4_Tet-GFP10-1D4 no dox, log [agonist] (M) -6.19382): 8.686 and 8.091
normalized IP1 accumulation (SP-FLAG-Nluc-HT7-MRGX4_Tet-GFP10-1D4 no dox, log [agonist] (M) -6.89279): 8.749 and 8.325
normalized IP1 accumulation (SP-FLAG-Nluc-HT7-MRGX4_Tet-GFP10-1D4 no dox, log [agonist] (M) -7.59176): 8.705 and 9.2498
normalized IP1 accumulation (SP-Flag-MRGX4-1D4, log [agonist] (M) -4): 68.6268 and 66.4742
normalized IP1 accumulation (SP-Flag-MRGX4-1D4, log [agonist] (M) -4.69897): 30.127 and 33.8796
normalized IP1 accumulation (SP-Flag-MRGX4-1D4, log [agonist] (M) -5.39794): 14.3992 and 13.1143
normalized IP1 accumulation (SP-Flag-MRGX4-1D4, log [agonist] (M) -6.09691): 8.224 and 9.664
normalized IP1 accumulation (SP-Flag-MRGX4-1D4, log [agonist] (M) -6.79588): 7.099 and 7.695
normalized IP1 accumulation (SP-Flag-MRGX4-1D4, log [agonist] (M) -7.49485): 6.315 and 7.555
normalized IP1 accumulation (SP-Flag-MRGX4-GFP10-1D4, log [agonist] (M) -4): 68.4519 and 65.3389
normalized IP1 accumulation (SP-Flag-MRGX4-GFP10-1D4, log [agonist] (M) -4.69897): 36.0479 and 38.0394
normalized IP1 accumulation (SP-Flag-MRGX4-GFP10-1D4, log [agonist] (M) -6.09691): 10.072 and 10.3886
normalized IP1 accumulation (SP-Flag-MRGX4-GFP10-1D4, log [agonist] (M) -6.79588): 8.9869 and 9.025
normalized IP1 accumulation (SP-Flag-MRGX4-GFP10-1D4, log [agonist] (M) -7.49485): 7.933 and 9.527
IP1 Basal (construct FLAG-MRGPRX4-1D4 (Fig. S4A-F)): 7.469
Emax (construct FLAG-MRGPRX4-1D4 (Fig. S4A-F), read-out: IP1 Emax): 96.3%
Emax (construct FLAG-MRGPRX4-1D4 (Fig. S4A-F), read-out: IP1 span): 88.8%
IP1 Basal (construct FLAG-MRGPRX4-GFP10-1D4 (Fig. S4A-F)): 8.165
Emax (construct FLAG-MRGPRX4-GFP10-1D4 (Fig. S4A-F), read-out: IP1 Emax): 88.5%
Emax (construct FLAG-MRGPRX4-GFP10-1D4 (Fig. S4A-F), read-out: IP1 span): 80.4%
IP1 Basal (construct FLAG-NLuc-HT7-MRGPRX4-GFP10-1D4 (Fig. S4A-F)): 10.56
Emax (construct FLAG-NLuc-HT7-MRGPRX4-GFP10-1D4 (Fig. S4A-F), read-out: IP1 Emax): 55%
Emax (construct FLAG-NLuc-HT7-MRGPRX4-GFP10-1D4 (Fig. S4A-F), read-out: IP1 span): 44.5%
IP1 Basal (construct HA-MRGPRX4-1D4 (Fig. S4A-F)): 12.52
Emax (construct HA-MRGPRX4-1D4 (Fig. S4A-F), read-out: IP1 Emax): 64.7%
Emax (construct HA-MRGPRX4-1D4 (Fig. S4A-F), read-out: IP1 span): 52.2%
